Experimental data from BigSolDB 2.1.

COc1ccc(Cl)cc1C(=O)NCCc1ccc(S(=O)(=O)NC(=O)NC2CCCCC2)cc1
solubility (mole fraction)
Settings	288.15 K	293.15 K	298.15 K	303.15 K	308.15 K	313.15 K	318.15 K	323.15 K
in acetonitrile	8e-05	0.000106	0.000144	0.000184	0.000231	0.0003	0.00043	0.000571
in isopropanol	0.000106	0.000121	0.000168	0.000231	0.000309	0.000404	0.000577	0.000863
in methanol	0.000181	0.000229	0.000289	0.000365	0.000451	0.000614	0.000941	0.00131
in n-propanol	0.000155	0.000193	0.000237	0.000302	0.000428	0.000572	0.000751	0.00097
in water	9.02e-08	1.02e-07	1.26e-07	1.57e-07	2.18e-07	3.04e-07	4.35e-07	7.67e-07
